Assay: Measured drug load / API content of funapide gel formulations
Type: physicochemical

With O=C1N(Cc2ccc(C(F)(F)F)o2)c2ccccc2[C@]12COc1cc3c(cc12)OCO3 [funapide] the “drug concentration that can be loaded within the thermosensitive hydrogel formulation” value was “up to 20 mg/mL”.

Reference: US12364764B2, “Sustained release thermosetting gels comprising sodium channel blockers and the methods of making same” (Pacira Therapeutics, Inc., priority 2019, dated 2025)
